As a reminder, the IC50 is the point on the concentration scale where inhibition reaches its midpoint. Higher therefore signals lower potency.

This test concerns HL60 cell line. The experiment in a line: Inhibitory effect on growth of HL60 cell line (MTT). It counts as cell-based. The settings on record: Homo sapiens, HL-60, 72 h, 3 days culture. Here is the method: In the culture of HL60 cells, 10% FBS-containing RPMI1640 medium was used Each of test substances was serially diluted in DMSO to a concentration of 10 mg/ml and serially diluted in PBS to a final concentration ranging from 100 μg/ml to 0.03 μg/ml. 20 μl (micro-liter) of each of the serially diluted test substances and 180 μl (micro-liter) of a medium containing 60×10^4 cells/ml were added to a 96-well plate and cultured under conditions of 37° C. and 5% CO2 for 3 days. After completion of the culture, 50 μl (micro-liter) of a solution of 1.25 mg/ml MTT (3-(4,5-dimethylthiazol-2-yl)-2,5-diphenyltetrazolium bromide) in PBS was added to each well of the plate and incubated at 37° C. for 3 hours. The formed formazan crystal was dissolved in 150 μl (micro-liter) of DMSO, and the absorbance at 570 nm was measured.
The compound `COc1ccc(C(=O)N(CCCCCCC(=O)NO)c2ccc(-c3ccc4cc[nH]c4c3)cc2)cc1` [Compound 180, N-(4-(1H-indol-6-yl)phenyl)-N-(7-(hydroxyamino)-7-oxoheptyl)-4-methoxybenzamide] came in with an IC50 of 20 to 50 nM.
Compound `O=C(CCCCCCN(C(=O)c1cccnc1)c1ccc(-c2ccc3cc[nH]c3c2)cc1)NO` [Compound 181, N-(4-(1H-indol-6-yl)phenyl)-N-(7-(hydroxyamino)-7-oxoheptyl)nicotinamide] came in with an IC50 of 20 to 50 nM.
Turning to `O=C(CCCCCCN(C(=O)c1ccccn1)c1ccc(-c2ccc3cc[nH]c3c2)cc1)NO` [Compound 211, N-(4-(1H-indol-6-yl)phenyl)-N-(7-(hydroxyamino)-7-oxoheptyl)picolinamide], the IC50 lay within 50 to 100 nM.
The value for `COc1cccc(NC(=O)N(CCCCCCC(=O)NO)c2ccc(-c3ccc4cc[nH]c4c3)cc2)c1` [Compound 256, 7-(1-(4-(1H-indol-6-yl)phenyl)-3-(3-methoxyphenyl)ureido)-N-hydroxyheptanamide] was 50 to 100 nM; that for `COc1cc(NC(=O)N(CCCCCCC(=O)NO)c2ccc(-c3ccc4cc[nH]c4c3)cc2)cc(OC)c1` [Compound 260, 7-(1-(4-(1H-indol-6-yl)phenyl)-3-(3,5-dimethoxyphenyl)ureido)-N-hydroxyheptanamide] was 50 to 100 nM.
The value for `O=C(CCCCCCN(c1ccc(-c2ccc3cc[nH]c3c2)cc1)S(=O)(=O)c1cccnc1)NO` [Compound 263, 7-(N-(4-(1H-indol-6-yl)phenyl)pyridine-3-sulfonamido)-N-hydroxyheptanamide] was 20 to 50 nM; that for `CS(=O)(=O)N(CCCCCCC(=O)NO)c1ccc(-c2ccc3cc[nH]c3c2)cc1` [Compound 264, 7-(N-(4-(1H-indol-6-yl)phenyl)methylsulfonamido)-N-hydroxyheptanamide] was 20 to 50 nM; that for `CN(C)CC(=O)N(CCCCCCC(=O)NO)c1ccc(-c2ccc3cc[nH]c3c2)cc1` [Compound 265, 7-(N-(4-(1H-indol-6-yl)phenyl)-2-(dimethylamino)acetamido)-N-hydroxyheptanamide] was 50 to 100 nM.
Consider `CCOC(=O)N(CCCCCCC(=O)NO)c1ccc(-c2ccc3cc[nH]c3c2)cc1` [Compound 267, Ethyl 4-(1H-indol-6-yl)phenyl(7-(hydroxyamino)-7-oxoheptyl)carbamate], for which the IC50 was in the range of 50 to 100 nM.
The value for `Cn1ncc2ccc(-c3ccc(N(CCCCCCC(=O)NO)C(=O)c4cccnc4)cc3)cc21` [Compound 270, N-(7-(hydroxyamino)-7-oxoheptyl)-N-(4-(1-methyl-1H-indazol-6-yl)phenyl)nicotinamide] was 50 to 100 nM.
For `CNC(=O)N(CCCCCCC(=O)NO)c1ccc(-c2ccc3cc[nH]c3c2)cc1` [Compound 275, 7-(1-(4-(1H-indol-6-yl)phenyl)-3-methylureido)-N-hydroxyheptanamide], the IC50 lay within 50 to 100 nM.
The value for `CCS(=O)(=O)N(CCCCCCC(=O)NO)c1ccc(-c2ccc3cc[nH]c3c2)cc1` [Compound 276, 7-(N-(4-(1H-indol-6-yl)phenyl)ethylsulfonamido)-N-hydroxyheptanamide] was 20 to 50 nM; that for `CN(C)S(=O)(=O)N(CCCCCCC(=O)NO)c1ccc(-c2ccc3cc[nH]c3c2)cc1` [Compound 277, 7-((4-(1H-indol-6-yl)phenyl)(N,N-dimethylsulfamoyl)amino)-N-hydroxyheptanamide] was 50 to 100 nM; that for `Cn1ncc2ccc(-c3ccc(N(CCCCCCC(=O)NO)S(C)(=O)=O)cc3)cc21` [Compound 284, N-hydroxy-7-(N-(4-(1-methyl-1H-indazol-6-yl)phenyl)methylsulfonamido)heptanamide] was 50 to 100 nM.
The value for `CCNC(=O)N(CCCCCCC(=O)NO)c1ccc(-c2ccc3cc[nH]c3c2)cc1` [Compound 295, 7-(1-(4-(1H-indol-6-yl)phenyl)-3-ethylureido)-N-hydroxyheptanamide] was 50 to 100 nM; that for `Cc1cc2cc(-c3ccc(N(CCCCCCC(=O)NO)S(C)(=O)=O)cc3)ccc2[nH]1` [Compound 296, N-hydroxy-7-(N-(4-(2-methyl-1H-indol-5-yl)phenyl)methylsulfonamido)heptanamide] was 50 to 100 nM; that for `CS(=O)(=O)N(CCCCCCC(=O)NO)c1ccc(-c2ccc3[nH]ccc3c2)cc1` [Compound 303, 7-(N-(4-(1H-indol-5-yl)phenyl)methylsulfonamido)-N-hydroxyheptanamide] was 10 to 20 nM.
Under `O=C(CCCCCCN(C(=O)c1ccccn1)c1ccc(-c2ccc3[nH]ccc3c2)cc1)NO` [Compound 305, N-(4-(1H-indol-5-yl)phenyl)-N-(7-(hydroxyamino)-7-ooxheptyl)picolinamide] stands 20 to 50 nM; under `O=C(CCCCCCN(C(=O)N1CCOCC1)c1ccc(-c2ccc3cc[nH]c3c2)cc1)NO` [Compound 306, N-(4-(1H-indol-6-yl)phenyl)-N-(7-(hydroxyamino)-7-oxoheptyl)morpholine-4-carboxamide], 10 to 20 nM.
`CN1CCN(C(=O)N(CCCCCCC(=O)NO)c2ccc(-c3ccc4cc[nH]c4c3)cc2)CC1` [Compound 309, N-(4-(1H-indol-6-yl)phenyl)-N-(7-(hydroxyamino)-7-oxoheptyl)-4-methylpiperazine-1-carboxamide]: the IC50 was in the range of 10 to 20 nM.
The value for `CN1CCN(C(=O)N(CCCCCCC(=O)NO)c2ccc(-c3ccc4[nH]ccc4c3)cc2)CC1` [Compound 313, N-(4-(1H-indol-5-yl)phenyl)-N-(7-(hydroxyamino)-7-oxoheptyl)-4-methylpiperazine-1-carboxamide] was 20 to 50 nM; that for `CCS(=O)(=O)N(CCCCCCC(=O)NO)c1ccc(-c2ccc3[nH]ccc3c2)cc1` [Compound 314, 7-(N-(4-(1H-indol-5-yl)phenyl)ethylsulfonamido)-N-hydroxyheptanamide] was 20 to 50 nM; that for `CS(=O)(=O)N(CCCCCCC(=O)NO)c1ccc(-c2ccc3cc[nH]c3c2)nc1` [Compound 326, 7-(N-(6-(1H-indol-6-yl)pyridin-3-yl)methylsulfonamido)-N-hydroxyheptanamide] was 20 to 50 nM.
Under `Cn1ncc2ccc(-c3ccc(N(CCCCCCC(=O)NO)S(C)(=O)=O)cn3)cc21` [Compound 327, N-hydroxy-7-(N-(6-(1-methyl-1H-indazol-6-yl)pyridin-3-yl)methylsulfonamido)heptanamide] stands 50 to 100 nM; under `CS(=O)(=O)N(CCCCCCC(=O)NO)c1ccc(-c2ccc3[nH]ccc3c2)nc1` [Compound 328, 7-(N-(6-(1H-indol-5-yl)pyridin-3-yl)methylsulfonamido)-N-hydroxyheptanamide], 20 to 50 nM; under `CN1CCCN(C(=O)N(CCCCCCC(=O)NO)c2ccc(-c3ccc4cc[nH]c4c3)cc2)CC1` [Compound 330, N-(4-(1H-indol-6-yl)phenyl)-N-(7-(hydroxyamino)-7-oxoheptyl)-4-methyl-1,4-diazepane-1-carboxamide], 50 to 100 nM.
Compound `CCN1CCN(C(=O)N(CCCCCCC(=O)NO)c2ccc(-c3ccc4[nH]ccc4c3)cc2)CC1` [Compound 340, N-(4-(1H-indol-5-yl)phenyl)-4-ethyl-N-(7-(hydroxyamino)-7-oxoheptyl)piperazine-1-carboxamide] gave an IC50 of 10 to 20 nM.
`CN1CCN(C(=O)N(CCCCCCC(=O)NO)c2ccc(-c3ccc4c(ccn4C)c3)cc2)CC1` [Compound 341, N-(7-(hydroxyamino)-7-oxoheptyl)-4-methyl-N-(4-(1-methyl-1H-indol-5-yl)phenyl)piperazine-1-carboxamide] displayed an IC50 of 20 to 50 nM.
Regarding `CN1CCN(S(=O)(=O)N(CCCCCCC(=O)NO)c2ccc(-c3ccc4cnn(C)c4c3)cc2)CC1` [Compound 342, N-hydroxy-7-(4-methyl-N-(4-(1-methyl-1H-indazol-6-yl)phenyl)piperazine-1-sulfonamido)heptanamide], the IC50 lay in the range of 20 to 50 nM.
The value for `CN1CCN(C(=O)N(CCCCCCC(=O)NO)c2ccc(-c3ccc4c(cnn4C)c3)cc2)CC1` [Compound 350, N-(7-(hydroxyamino)-7-oxoheptyl)-4-methyl-N-(4-(1-methyl-1H-indazol-5-yl)phenyl)piperazine-1-carboxamide] was 20 to 50 nM.
In turn, `CCN1CCN(C(=O)N(CCCCCCC(=O)NO)c2ccc(-c3ccc4c(cnn4C)c3)cc2)CC1` [Compound 351, 4-ethyl-N-(7-(hydroxyamino)-7-oxoheptyl)-N-(4-(1-methyl-1H-indazol-5-yl)phenyl)piperazine-1-carboxamide] yielded an IC50 of 20 to 50 nM.
Under `CN1CCN(C(=S)N(CCCCCCC(=O)NO)c2ccc(-c3ccc4cc[nH]c4c3)cc2)CC1` [Compound 357, 7-(N-(4-(1H-indol-6-yl)phenyl)-4-methylpiperazine-1-carbothioamido)-N-hydroxyheptanamide] stands 50 to 100 nM; under `CN1CCN(C(=S)N(CCCCCCC(=O)NO)c2ccc(-c3ccc4[nH]ccc4c3)cc2)CC1` [Compound 358, 7-(N-(4-(1H-indol-5-yl)phenyl)-4-methylpiperazine-1-carbothioamido)-N-hydroxyheptanamide], 20 to 50 nM.
The value for `CN1CCN(C(=S)N(CCCCCCC(=O)NO)c2ccc(-c3ccc4c(cnn4C)c3)cc2)CC1` [Compound 359, N-hydroxy-7-(4-methyl-N-(4-(1-methyl-1H-indazol-5-yl)phenyl)piperazine-1-thiocarboamido)heptanamide] was 20 to 50 nM.

The values are drawn from patent US8466161B2, “Hydroxamate derivative, a production method for the same, and a pharmaceutical composition comprising the same” (Chong Kun Dang Pharmaceutical Corp., priority 2009, dated 2013).
